# Data reported in patent US11040937B2, “Amide derivative” (TOHOKU UNIVERSITY, priority 2014, dated 2021).
# Where two headings read alike, the source gives them in different places.
# Assays:
# A549/OPNluc cells = assay: WST assay for cell growth / cell viability; assay type: cell-based, human; conditions: Homo sapiens, A549, A549/OPNluc cells, 48±4 hours, WST-1; read-out: IC50 (concentration for 50% inhibition of cell growth)
# Source text: (§1) A reporter vector pOPN1-luc obtained by the insertion of a human OPN promoter sequence (−765 to 23) into the multiple cloning site of pGL-3 basic vector (Promega) expresses luciferase when transfected into animal cells. The pOPN1-luc was transfected into a human non-small cell lung cancer-derived cell line A549 together with pPUR (Clontech) that expresses a puromycin resistance gene (puromycin-N-acetyl-transferase gene), and then cells expressing luciferase which could grow a puromycin-supplemented medium were selected. The selected cells were named “A549/OPNluc cells” and used for observation of luciferase expression inhibitory effect under control of OPN promoter, as described below.
# (§2) A test compound was added to a culture containing A549/OPNluc cells to observe its influence on the amount of luciferase expressed in the cells. Here, it can be considered that when the test compound has a cell cytotoxity or cell growth inhibitory effect, the total expression level of luciferase is reduced due to a reduction in the number of living cells that depends on the concentration of the test compound, and therefore the luciferase expression inhibitory effect of the test compound under control of OPN promoter cannot be properly evaluated. For this reason, WST assay for quantification of cell proliferation ability or cell viability by colorimetric measurement was firstly performed to determine IC50 (concentration for 50% inhibition of cell growth) of the test compound for cell growth. Then, luciferase activity measurement was performed to determine EC50 (concentration for 50% inhibition of luciferase expression) of the test compound for luciferase expression under control of OPN promoter.
# A549/OPNluc cells were suspended in DMEM medium containing 10% fetal calf serum (FCS) and 1% penicillin/streptomycin (P/S) at 3×10^4 cells/mL to obtain a cell suspension, and then the cell suspension was dispensed into each well of a 96-well plate in an amount of 100 μL. In order to perform the assay in triplicate, wells were prepared for a control group, and 3 wells were prepared for each test compound-treated group at each concentration. After the dispensation, the 96-well plate was incubated in a CO2 incubator (at 37° C. and 5% CO2) for 24±4 hours.
# The present compound was dissolved in dimethylsulfoxide (DMSO) to obtain a 50 mmol/L solution, and the compound solution was stored at −80° C. The compound solution was diluted with DMSO in 2-fold dilution series (usually, in the range of 0.31 mmol/L to 20 mmol/L) to prepare test compound solutions whose concentration varied by two fold for WST assay.
# Each solution of only DMSO (control) and the diluted test compound (sample) was dispensed into each well containing the cell suspension in an amount of 0.5 μL (200-fold dilution). The solution in each well was mixed with a vortex mixer, and then the 96-well plate was incubated in a CO2 incubator (at 37° C. and 5% CO2) for 48±4 hours. Then, Premix WST-1 Reagent (TAKARA BIO INC.) was added in an amount of 10 μL to each well. The solution in each well was mixed with a vortex mixer, and then the 96-well plate was incubated at 37° C. and 5% CO2. After 60 minutes or 120 minutes, the absorbance values (450 nm) were measured with a microplate reader (Bio-Rad; Benchmark or Thermo Scientific; Varioskan Flash).
# The absorbance values of the control wells and the sample wells at each concentration were input into an Excel file to determine the percentages of absorbance values of the sample wells at each concentration with to the average absorbance value of the control wells. From the determined values, a fitted curve was determined by the method of least squares to calculate IC50.
# [1] = system: human OPN promoter (pOPN1-luc) in A549/OPNluc cells; assay: Luciferase assay: luciferase expression under control of OPN promoter; assay type: cell-based; conditions: Homo sapiens
# Source text: as §1, §2
# The same steps as in the above-mentioned WST assay were performed in which each solution of only DMSO (control) or the diluted test compound (sample) was added in an amount of 0.5 μL to each well containing the cell suspension to achieve 200-fold dilution, and the solution in each well was mixed with a vortex mixer, and the 96-well plate was incubated in a CO2 incubator (at 37° C. and 5% CO2) for 48±4 hours.
# Luciferase Assay Substrate (hereinafter referred to as “LAS”) supplied in Luciferase Assay Systems (Promega: Cat #E1500) was dissolved in Luciferase Assay Buffer (LAB) to prepare a luciferase reagent. 5×Cell Culture Lysis Reagent (hereinafter referred to as “CCLR”) was diluted by 5 times with water to prepare 1×CCLR.
# After the incubation for 48±4 hours, the medium in each well was completely removed, and 1×CCLR was dispensed into each well in an amount of 50 μL. The 96-well plate was allowed to stand at room temperature for 30 minutes, and then 1×CCLR in each well was used as an assay sample. The luciferase reagent (100 μL) was placed in a tube for chemiluminescence measurement, and the assay sample (20 μL) was added to the tube and mixed with the luciferase reagent to measure chemiluminescence (Relative Luminescence Intensity: RLU) using TB 20/20 (Promega) or GloMax 20/20 (Promega).
# The RLU values of the control wells and the sample wells at each concentration were input into an Excel file, and the percentages of RLU values of the sample wells at each concentration to the average RLU value of the control wells were determined. From these values, a fitted curve was determined by the method of least squares to calculate EC50. Also, the percentages of RLU values of the sample wells at each concentration to the average RLU value of the control wells were divided by the percentages of absorbance values of the compounds in WST assay at the same concentrations as those of this assay (to the control), and a fitted curve was determined from the calculated values by the method of least squares to calculate corrected EC50.
# [2] = A549, A549/OPNluc cells, 48±4 hours, read-out: EC50 (concentration for 50% inhibition of luciferase expression)
# [3] = A549, EC50 corrected for decrease in viable cells (RLU % divided by WST %), read-out: corrected EC50
Structure (SMILES),IC50 (A549/OPNluc cells) [µM],"EC50 [1, 2] [µM]","EC50 [1, 3] [µM]"
"COc1ccc(Oc2cccc(C(=O)NCCNC(=O)c3ccc(O)cc3)c2)cc1 [Compound 21, N-(2-(3-(4-Methoxyphenoxy)benzoylamino)ethyl)-4-hydroxybenzamide]",95.9,16.1,17
"Nc1c(O)cccc1C(=O)CCNC(=O)c1ccc(O)cc1 [Compound 13, N-(3-(2-Amine-3-hydroxyphenyl)-3-oxopropyl)-4-hydroxybenzamide]",> 200,> 200,–
"Nc1c(Oc2ccc(O)cc2)cccc1C(=O)CCNC(=O)c1ccc(F)cc1 [Compound 9, N-(3-(2-Amino-3-(4-hydroxyphenoxy)phenyl)-3-oxopropyl)-4-fluorobenzamide]",93.7,41.5,65.6
"COc1ccc(Oc2cccc(NC(=O)CCCNC(=O)c3ccc(O)cc3)c2)cc1 [Compound 27, N-(4-(3-(4-Methoxyphenoxy)phenylamino)-4-oxobuthyl)-4-hydroxybenzamide]",71.9,19.8,26.6
"O=C(CCNC(=O)c1ccncc1)Nc1cccc(Oc2ccc(Cl)cc2)c1 [Compound 37, N-(3-(3-(4-Chlorophenoxy)phenylamino)-3-oxopropyl)pyridine-4-carboxamide]",60.1,15.6,20.9
"CC(=O)NCCC(=O)c1cccc(Oc2ccc(O)cc2)c1N [Compound 8, N-(3-(2-Amino-3-(4-hydroxyphenoxy)phenyl)-3-oxopropyl)-acetamide]",> 100,> 100,–
"COc1ccc(Oc2cccc(C(=O)CCNC(=O)c3ccc(O)cc3)c2N)cc1OC [Compound 16, N-(3-(2-Amino-3-(3,4-dimethoxyphenoxy)phenyl)-3-oxopropyl)-4-hydroxybenzamide]",34.9,9.8,12.5
"COc1ccc(Oc2ccccc2NC(=O)CCNC(=O)c2ccc(O)cc2)cc1 [Compound 29, N-(3-(2-(4-methoxyphenoxy)phenylamino)-3-oxopropyl)-4-hydroxybenzamide]",> 100,51.4,62.1
"O=C(NCCc1c[nH]c2c(Oc3ccc(O)cc3)cccc12)c1ccc(O)cc1 [Compound 2, 4-Hydroxy-N-(2-(7-(4-hydroxyphenoxy)-1H-indol-3-yl)ethyl)benzamide]",51,26.8,60.3
"COc1ccc(Oc2ccccc2NC(=O)CNC(=O)c2ccc(O)cc2)cc1 [Compound 28, N-(2-(2-(4-Methoxyphenoxy)phenylamino)-2-oxoethyl)-4-hydroxybenzamide]",> 100,41.5,53.7
"Nc1c(Oc2ccc(O)cc2)cccc1C(=O)CCNC(=O)c1ccc(O)cc1 [Compound 1, N-(3-(2-Amino-3-(4-hydroxyphenoxy)phenyl)-3-oxopropyl)-4-hydroxybenzamide]",65.9,17.1,24.5
"COc1ccc(Oc2cccc(C(=O)CCNC(=O)c3ccc(OC)cc3)c2N)cc1 [Compound 5, N-(3-(2-Amino-3-(4-methoxyphenoxy)phenyl)-3-oxopropyl)-4-methoxybenzamide]",64.9,19.5,22.6
"O=C(CCNC(=O)c1ccsc1)Nc1cccc(Oc2ccc(Cl)cc2)c1 [Compound 36, N-(3-(3-(4-Chlorophenoxy)phenylamino)-3-oxopropyl)thiophene-3-carboxamide]",43.3,22,31.2
"O=C(CCNC(=O)c1ccc(O)cc1)Nc1cccc(Oc2ccc(Cl)cc2)c1 [Compound 24, N-(3-(3-(4-Chlorophenoxy)phenylamino)-3-oxopropyl)-4-hydroxybenzamide]",29.4,7.5,11.4
"O=C1NCCc2c1[nH]c1c(Oc3ccc(O)cc3)cccc21 [Compound 18, 8-(4-Hydroxyphenoxy)-1,2,3,4-tetrahydro-β-carboline-1-one]",49.4,> 50,–
"O=C(NCCC(=O)c1cccc(O)c1O)c1ccc(Oc2ccc(O)cc2)cc1 [Compound 3, N-(3-(2,3-Dihydroxyphenyl)-3-oxopropyl)-4-(4-hydroxyphenoxy)benzamide]",32.5,32.2,103
"O=C(CCNC(=O)c1cccs1)Nc1cccc(Oc2ccc(Cl)cc2)c1 [Compound 35, N-(3-(3-(4-Chlorophenoxy)phenylamino)-3-oxopropyl)thiophene-2-carboxamide]",74.6,23.8,41.4
"Nc1c(Oc2ccc(O)cc2)cccc1C(=O)CCNC(=O)C1CCOCC1 [Compound 11, N-(3-(2-Amino-3-(4-hydroxyphenoxy)phenyl)-3-oxopropyl)-(tetrahydro-2H-pyran-4-yl)-carboxamide]",200,166,–
"Nc1c(Oc2ccc(O)cc2)cccc1C(=O)CCNC(=O)C1CCCCC1 [Compound 10, N-(3-(2-Amino-3-(4-hydroxyphenoxy)phenyl)-3-oxopropyl)-cyclohexanecarboxamide]",52.8,31.5,41.7
"O=C(Nc1cccc(Oc2ccc(Cl)cc2)c1)C1CCCN1C(=O)c1ccc(O)cc1 (stereo not shown) [Compound 34, N-(3-(4-Chlorophenoxy)phenyl)-1-(4-hydroxyphenylcarbonyl)pyrrolidine-2-carboxamide]",55.1,24.9,32.9
"COc1cccc(C(=O)CCNC(=O)c2ccc(O)cc2)c1N [Compound 12, N-(3-(2-Amino-3-methoxyphenyl)-3-oxopropyl)-4-hydroxybenzamide]",> 200,> 200,–
"COc1ccc(C(=O)NCCC(=O)c2cccc(Oc3ccc(O)cc3)c2N)cc1 [Compound 4, N-(3-(2-Amino-3-(4-hydroxyphenoxy)phenyl)-3-oxopropyl)-4-methoxybenzamide]",67.1,27.6,37
"O=C(Nc1cccc(Oc2ccc(Cl)cc2)c1)C1CCN(C(=O)c2ccc(O)cc2)C1 (stereo not shown) [Compound 32, N-(3-(4-chlorophenoxy)phenyl)-1-(4-hydroxyphenylcarbonyl)pyrrolidine-3-carboxamide]",24.7,8,9.3
